According to the NIST ThermoML archive (doi:10.1007/s10765-008-0535-5):

Assay: molar heat capacity at constant volume; wn = mass fraction of the nth substance listed
Conditions: Liquid, Vacuum adiabatic calorimetry, w2 = 0.5111

FC(F)C(F)(F)F [pentafluoroethane] + FCF
Conditions	molar heat capacity at constant volume [J/K/mol]
298.15 K, 28366 kPa	65.48
299.15 K, 7469 kPa	69.08
299.15 K, 7499 kPa	69.29
299.15 K, 7541 kPa	67.28
299.15 K, 29176 kPa	67.56
299.15 K, 29179 kPa	67.49
299.15 K, 29186 kPa	66.05
300.15 K, 8097 kPa	69.15
300.15 K, 8124 kPa	67.85
300.15 K, 8166 kPa	68.07
300.15 K, 29998 kPa	66.56
300.15 K, 29999 kPa	65.55
300.15 K, 30003 kPa	66.7
301.15 K, 8725 kPa	68.57
301.15 K, 8750 kPa	68.07
301.15 K, 8791 kPa	67.92
302.15 K, 9353 kPa	68.14
302.15 K, 9377 kPa	68.86
302.15 K, 9417 kPa	66.99
303.15 K, 9980 kPa	68.57
303.15 K, 10003 kPa	68.28
303.15 K, 10042 kPa	67.2
304.15 K, 10607 kPa	68.72
304.15 K, 10629 kPa	66.92
304.15 K, 10667 kPa	67.49
305.15 K, 11234 kPa	66.92
305.15 K, 11256 kPa	67.42
305.15 K, 11292 kPa	66.05
306.15 K, 11861 kPa	68.14
306.15 K, 11881 kPa	66.99
306.15 K, 11917 kPa	66.2
307.15 K, 12487 kPa	66.77
307.15 K, 12507 kPa	67.28
307.15 K, 12541 kPa	66.92
308.15 K, 13114 kPa	67.06
308.15 K, 13133 kPa	67.35
308.15 K, 13165 kPa	65.84
309.15 K, 13740 kPa	66.92
309.15 K, 13758 kPa	67.13
309.15 K, 13790 kPa	66.12
310.15 K, 14367 kPa	67.13
310.15 K, 14384 kPa	66.05
310.15 K, 14414 kPa	65.91
311.15 K, 14992 kPa	66.48
311.15 K, 15009 kPa	66.2
311.15 K, 15038 kPa	65.84
312.15 K, 15618 kPa	64.9
312.15 K, 15634 kPa	67.13
312.15 K, 15662 kPa	65.26
313.15 K, 16243 kPa	66.7
313.15 K, 16259 kPa	66.2
313.15 K, 16286 kPa	65.26
314.15 K, 16869 kPa	66.2
314.15 K, 16883 kPa	65.98
314.15 K, 16910 kPa	65.26
315.15 K, 17493 kPa	65.77
315.15 K, 17507 kPa	65.84
315.15 K, 17534 kPa	64.54
316.15 K, 18118 kPa	65.77
316.15 K, 18131 kPa	65.12
316.15 K, 18158 kPa	64.9
317.15 K, 18743 kPa	65.48
317.15 K, 18755 kPa	64.33
317.15 K, 18781 kPa	64.47
318.15 K, 19367 kPa	64.97
318.15 K, 19379 kPa	64.9
318.15 K, 19404 kPa	64.25
319.15 K, 19990 kPa	65.05
319.15 K, 20003 kPa	65.12
319.15 K, 20027 kPa	64.61
320.15 K, 20613 kPa	63.75
320.15 K, 20627 kPa	65.77
320.15 K, 20649 kPa	64.33
321.15 K, 21236 kPa	64.69
321.15 K, 21250 kPa	64.69
321.15 K, 21272 kPa	63.61
322.15 K, 21858 kPa	64.69
322.15 K, 21873 kPa	63.9
322.15 K, 21894 kPa	64.04
323.15 K, 22480 kPa	63.9
323.15 K, 22495 kPa	63.9
323.15 K, 22516 kPa	63.61
324.15 K, 23103 kPa	64.33
324.15 K, 23117 kPa	64.97
324.15 K, 23137 kPa	62.6
325.15 K, 23725 kPa	64.25
325.15 K, 23738 kPa	63.39
325.15 K, 23758 kPa	63.1
326.15 K, 24347 kPa	64.33
326.15 K, 24361 kPa	64.9
326.15 K, 24379 kPa	62.74
327.15 K, 24970 kPa	63.75
327.15 K, 24981 kPa	63.1
327.15 K, 25000 kPa	63.68
328.15 K, 25590 kPa	62.96
328.15 K, 25601 kPa	63.1
328.15 K, 25620 kPa	62.17
